Patent publication US12077610B2, “Peptides and other agents for treating pain and increasing pain sensitivity” (The Research Foundation for The State University of New York, priority 2017, dated 2024)
Non-standard residues stand in square brackets, D forms with d. No end group written: not given here. *: point of attachment. pT = C[C@@H](OP(=O)(O)O)[C@H](N)C(=O)O; Myristoyl = CCCCCCCCCCCCCC(=O)*

Tests used:
DRG neurons = assay: Current-clamp action potential firing in cultured DRG neurons; type: cell-based, rat
Experimental: (§1) Primary DRG neuronal cultures—Timed-pregnant Sprague-Dawley rats (Harlan, Indianapolis, Ind.) were used for culturing neurons. On the day of the dissection, rats were euthanized by CO2 asphyxiation and E15 embryos were extracted. DRG neurons were dissected from the embryos and enzymatically digested with Trypsin (2.5 mg/ml) at 37° C. for 45 min, followed by dissociation and plating. DRG neurons were plated onto poly-D-lysine (Sigma; 100 μg/ml) and laminin (Invitrogen; 3 μg/ml) coated coverslips. Neurons were maintained at 37° C. in a 7% CO2 humidified incubator in serum-free medium, comprised of the trophic factors N2 (Gemini Bio products; 1%), I-Glutamine (Invitrogen; 200 sg/ml), and Nerve Growth Factor (NGF) (Harlan; 100 ng/ml; essential for embryonic neuronal survival) in 50% DMEM and 50% F-12. The reliance of embryonic DRG neurons on NGF selects for the small-diameter population that is thought to underlie nociception and thermoception. Two successive days after DRG dissection, DRG neurons were cultured in C2 media containing the anti-mitotic agent cytosine β-d-arabinofuranoside hydrochloride (Sigma; 3 μM). This was followed by two days of recovery were neurons received regular serum free media before neurons were used for experiments. All subsequent experiments using embryonic cultures were performed on days 5-10 of neuronal culture.
Electrophysiology—All data was acquired using the Axopatch 200B amplifier (Molecular Devices,) and Multiclamp-700B (Molecular Devices, Sunnyvale, Calif.), digitized and filtered at 5 kHz. Data acquisition was monitored and controlled using pClamp 10 (Molecular Devices). Whole-cell patch-clamp recordings were performed on cultured DRG neurons, and CHO cells transiently transfected with WT or mutated Slack with Magi-1. Glass electrodes were pulled using a vertical pipette puller (Narishige International USA, Amityville, NY) and fire polished to be of 5-8 MΩ resistance. Pipettes were filled with solution containing (in mM) 124 K-gluconate, 2 MgCl2, 13.2 NaCl, 1 EGTA, 10 HEPES, 4 Mg-ATP, and 0.3 Na-GTP at pH 7.2 for neuronal recordings, and with 32.5 mM KCl, 97.5 mM potassium gluconate, 5 mM EGTA and 10 mM HEPES (pH 7.2) for CHO cell Slack and Slick recordings. […] In voltage-clamp mode, macroscopic currents were recorded at voltages ranging from −120 to +120. […] The cell capacitance for CHO cells ranged from 10-15 pF and for cultured DRG neurons 20-25 pF recorded under these conditions. […] Firing frequency of individual neurons was assessed by measurement of repetitive discharge upon injecting of a supra-threshold stimulus of 400 pA for 1000 ms. […] For TTX-resistant INa, DRG neurons were recorded in a bath solution containing 250 nM TTX. DRG neurons were recorded at voltages ranging from −60 to +60 mV. […]

Slack KNa channel = assay: Surface biotinylation of Slack channel in cultured DRG neurons; type: cell-based, rat; settings: 24 hrs after PDZ peptide incubation, vs scrambled peptide B
Experimental: (§2) Western Blot Analysis—Total proteins were collected from transfected CHO cells, spinal cord and DRG. Tissue was homogenized in RIPA buffer supplemented in protease inhibitor cocktail (Sigma). Immunoblotting was performed as previously described. Briefly, proteins were separated on 4-15% Mini-PROTEAN TGX Precast Gel (Bio-Rad) and transferred to a 0.45 μm nitrocellulose membrane (BioRad). Membranes were probed overnight at 4° C. with antibodies against Slack anti-mouse (1:500; NeuroMab), rabbit anti-β-Actin (1:500; Millipore), rabbit anti-Magi-1 (1:100; Abcam), mouse anti-Magi-1 (1:100; Novus Biochemical), mouse anti-NaV1.8 (1:200; NeuroMab), mouse anti-NaV1.7 (1:200; NeuroMab), mouse anti-Flag (1:500; Sigma) in 5% milk prepared in 1×Tris-buffered saline tween (TBST). On the following day, the membrane was washed three times for five minutes in 1×TBST before being incubated for 1 hour at room temperature in Anti-mouse or Anti-rabbit horseradish peroxidase conjugate (1:5000; Promega) and 0.1% BSA prepared in 1×PBS. The membrane was again washed 3 times for 5 minutes before being developed and imaged. Bands were visualized with enhanced chemiluminescence (Thermo Scientific) and quantified with Image J Software (NIH). Each experiment was repeated at least three times.
(§3) Surface Protein Biotinylation—Plasma membrane protein expression was detected using a protein biotinylation assay. […]

INa in DRG neurons = assay: Whole-cell voltage-clamp recording of inward sodium current (INa); type: cell-based, rat; settings: for INa (total / peak): 10 μM peptide, 24 hrs
Experimental: as §1, with “All subsequent experiments using embryonic cultures were performed on days 5-10 of neuronal culture.” left out
Electrophysiology—All data was acquired using the Axopatch 200B amplifier (Molecular Devices,) and Multiclamp-700B (Molecular Devices, Sunnyvale, Calif.), digitized and filtered at 5 kHz. Data acquisition was monitored and controlled using pClamp 10 (Molecular Devices). […] In voltage-clamp mode, macroscopic currents were recorded at voltages ranging from −120 to +120. […] The cell capacitance for CHO cells ranged from 10-15 pF and for cultured DRG neurons 20-25 pF recorded under these conditions. […] Firing frequency of individual neurons was assessed by measurement of repetitive discharge upon injecting of a supra-threshold stimulus of 400 pA for 1000 ms. […] For TTX-resistant INa, DRG neurons were recorded in a bath solution containing 250 nM TTX. DRG neurons were recorded at voltages ranging from −60 to +60 mV. […]

NaV1.8 = assay: Surface biotinylation / Western blot of NaV1.8 in cultured DRG neurons; type: cell-based, rat; settings: 10 μM peptide, 24 hrs
Experimental: as §2
Surface Protein Biotinylation—Plasma membrane protein expression was detected using a protein biotinylation assay. Briefly, CHO cells or DRG neurons in six-well plates were used at 48 h after transient transfection of plasmid constructs or Magi-1 targeting siRNA respectively. For peptide incubation, neurons were incubated for 24 hrs. 160 μl of 10 mM Sulfo-NHS-SS-Biotin (Thermo Scientific) was added to each well and incubated at room temperature for 45 mins. The biotinylation reaction was terminated using 10 mM glycine (Quenching solution). Cells were harvested, washed in TBS and lysed on ice for 30 minutes in a lysis buffer/protease inhibitor cocktail. Lysates were collected and incubated with 500 uL of NeutrAvidin Agarose for 60 mins at room temperature with rotation. Following incubation, the column underwent centrifugation to collect the unbiotinylated protein. To elute the biotinylated proteins, sodium dodecyl sulfate (SDS) and dithiothreitol (DDT) were added to column membrane and incubated with rotation for 1 hour at room temperature. Biotinylated and unbiotinylated samples were probed for Slack or NaV1.8 and Actin protein by Western blot, as described above.

NaV1.7 = assay: Surface biotinylation of NaV1.7 in cultured DRG neurons; type: cell-based, rat; settings: peptide treatment 24 hrs
Experimental: as §2, §3

[1] = Formalin test of acute inflammatory pain; type: in vivo, mice; settings: single i.pl. injection 100 μM, 20 μl, 24 hrs before 5% formalin; vs scrambled peptide
Text: In vivo transfection with jetPEI®/Magi-1 shRNA plasmid DNA polyplexes—The spinal nerve injection protocol was adopted from and optimized for spinal nerve injection in mice. Three days after baseline thermal behavior was established, mice were anesthetized using isoflurane (induction: 4% and maintenance: 2%), and placed in a prone position. A 3-cm posterior longitudinal skin incision was made at the lumbar segment of the spine. The ipsilateral paraspinal muscles were carefully separated, using a pair of sterile toothpicks, from their attachments at the L4˜S1 levels of the vertebral column. 1.5 μl of PEI/shRNA plasmid DNA polyplexes at an N/P ratio of 6 were injected directly in the spinal nerve of the right hind paw slowly using a syringe connected to a 26-gauge needle (Hamilton 80030, Hamilton, Reno, NV). Magi-1 shRNAs and control shRNA were purchased from Santa Cruz Biotechnology (Santa Cruz, CA, USA) and were identical to the siRNA sequences described above. After injection, the needle was held at the spinal nerve for 1 min to prevent leakage. […]
Formalin test—Mice were habituated in the behavior room for 15 minutes, then 30 minutes in the formalin chamber before formalin injection. […] The total time spent lifting, the total number of licks, and the number of flinches were recorded in 5 minute intervals for 60 minutes. […]

With NPETRDETQL [PDZ peptide] the “neurons exhibiting repetitive firing” value (DRG neurons; PDZ peptide treated, suprathreshold stimulation 400 pA, 1000 ms) was 11/21 and the Slack surface expression (Slack KNa channel) was “decreased”.

For “myristoyl-QPNTRLDETE (Myristoyl-QPNTRLDETE) [Scrambled peptide B, reference compound]”, the “neurons firing one action potential followed by firing accommodation” value (DRG neurons; suprathreshold stimulation 400 pA, 1000 ms) was 23/23.

With “myristoyl-SATSFPPSYDSVTRG (Myristoyl-SATSFPPSYDSVTRG) [PY peptide]” the “neurons with AP firing almost completely abolished” value (DRG neurons; 10 μM peptide, 24 hrs) was 10 of 11, the “INa (total / peak)” value (INa in DRG neurons) was “almost complete loss” and the “decrease in INa density” value (INa in DRG neurons; PY peptide incubation, 6 hours) was 50%. For the same substance, the “NaV1.8 channels at the plasma membrane (surface expression)” value (NaV1.8) was “substantial decrease”, the “total NaV1.8 protein” value (NaV1.8) was “substantial decrease” and the “surface (biotinylated) NaV1.7 membrane expression” value (NaV1.7) was “unaltered”. The “Phase II acute inflammatory pain (formalin)” value [1] was “significantly reduced”.

With “myristoyl-SATSFPPSYDSV[pT]RG (Myristoyl-SATSFPPSYDSV[pT]RG) [phospho-PY peptide]” the “neurons with repetitive AP firing” value (DRG neurons; 10 μM peptide, 24 hrs, suprathreshold stimulation 400 pA, 1000 ms) was 7 of 12, the “INa (total / peak)” value (INa in DRG neurons) was “strongly increased” and the “NaV1.8 channels at the plasma membrane (surface expression)” value (NaV1.8) was “significant increase”. For the same substance, the “total NaV1.8 protein” value (NaV1.8) was “a statistically significant increase in input levels of NaV1.8 protein over 24 hours was not observed”, the “surface (biotinylated) NaV1.7 membrane expression” value (NaV1.7) was “unaltered” and the “Phase II acute inflammatory pain (formalin)” value [1] was “increase”.
